# According to US4150137A, “Pyridylalkyl esters of 2-(p-isobutylphenyl)acetic acid and propionic acids and use” (Hisamitsu Pharmaceutical Co. Inc., priority 1975, dated 1979):
# Assays:
# male mice of dd-strain = format: in vivo; details: death of animals 72 hours following administration
# Protocol: Each test compound suspended in 0.5% tragacanth-saline was administered intraperitoneally or orally to male mice of dd-strain(body weight 16-24 g). The lethal dose was estimated from the death of animals 72 hours following administration.
# carrageenin edema = assay: Anti-inflammatory activity for oral route (carrageenin edema, hind paw); format: in vivo, rat (Wistar-strain); details: percent inhibition divided by that of ibuprofen, carrageenin edema after 3 hours; for anti-inflammatory effect, oral, 10 mg/kg (relative inhibition, ibuprofen = 1.0): 10 mg/kg oral; for anti-inflammatory effect, oral, 50 mg/kg (relative inhibition, ibuprofen = 1.0): 50 mg/kg oral
# Protocol: After 30 minutes 0.5-1.0% carrageenin suspended in the water for injection was injected subcutaneously to a hind paw. After 3 hours the carrageenin edema was measured by volume, and the percent inhibition was determined with respect to the results for the control animals.
# [1] = tested on: carrageenin-induced leakage of the pigment, dorsal skin; assay: Anti-inflammatory activity for topical route (carrageenin, leakage of pigment in dorsal skin); format: in vivo, rat (Wistar-strain); details: 1% in polyethylene glycol 300, percent inhibition divided by that of ibuprofen
# Protocol: The dorsal skin of male rats of Wistar-strain(body weight: about 100 g) were depilated. Carrageenin suspension was injected intra-dermally at a dose of 250 γ/0.05 ml/site. […] Immediately after injection, the filter paper containing 125.2±18.0 mg of the polyethylene glycol was applied on the injected site. After 3 hours, 1% pontamine sky blue solution was injected intravenously at a dose of 0.5 ml/kg. After further 3 hours, the animals were sacrificed and their dorsal skin were removed to measure the area of leakage of the pigment. The percent inhibition was determined with respect to the results for the control animals.
# writhing syndrome = assay: Analgetic activity (acetic acid writhing syndrome); format: in vivo, mouse (dd-strain); details: Mus musculus, 1 h; oral, mice, 0.6% acetic acid i.p. one hour later; Litchfield-Wilcoxon; read-out: analgetic effect ED50 (95% C.L.)
# Protocol: Each test compound suspended in 0.5% tragacanth-saline was orally administered to dd-strain mice(body weight: 18-20 g). After one hour 0.6% acetic acid solution was injected intraperitoneally in a volume of 0.1 ml/10 g.
SMILES,"acute toxicity, oral (lethal dose) (male mice of dd-strain) [mg/kg]","anti-inflammatory effect, oral, 10 mg/kg (relative inhibition, ibuprofen = 1.0) (carrageenin edema)","anti-inflammatory effect, oral, 50 mg/kg (relative inhibition, ibuprofen = 1.0) (carrageenin edema)","anti-inflammatory effect, topical (relative inhibition, ibuprofen = 1.0) [1]",ED50 (writhing syndrome) [mg/kg]
"CCCOC(=O)C(C)c1ccc(CC(C)C)cc1 (centres unmarked) [Compound 2, 2-(4-isobutylphenyl)propionic acid-n-propyl ester]",> 2000,0.7,1.1,3.2,192
CCOCOC(=O)C(C)c1ccc(CC(C)C)cc1 (centres unmarked) [Compound 13],> 2000,1.3,1.0,2.8,155
CC(C)Cc1ccc(C(C)C(=O)OCc2ccccc2)cc1 (centres unmarked),> 2000,0.7,0.9,3.1,118
CC(C)Cc1ccc(C(C)C(=O)OCCCN(C)C)cc1 (centres unmarked),500 to 1000,0.7,1.1,2.2,29.9
